Assay results: ChEMBL document CHEMBL1136002 (J Med Chem, 2002)

Tests used:
[1] = target: T1, Sodium-dependent serotonin transporter (Homo sapiens, UniProt P31645); assay: Binding affinity for serotonin transporter (SERT) using [125I]RTI-55
Target sequence in this assay (P31645 whole entry): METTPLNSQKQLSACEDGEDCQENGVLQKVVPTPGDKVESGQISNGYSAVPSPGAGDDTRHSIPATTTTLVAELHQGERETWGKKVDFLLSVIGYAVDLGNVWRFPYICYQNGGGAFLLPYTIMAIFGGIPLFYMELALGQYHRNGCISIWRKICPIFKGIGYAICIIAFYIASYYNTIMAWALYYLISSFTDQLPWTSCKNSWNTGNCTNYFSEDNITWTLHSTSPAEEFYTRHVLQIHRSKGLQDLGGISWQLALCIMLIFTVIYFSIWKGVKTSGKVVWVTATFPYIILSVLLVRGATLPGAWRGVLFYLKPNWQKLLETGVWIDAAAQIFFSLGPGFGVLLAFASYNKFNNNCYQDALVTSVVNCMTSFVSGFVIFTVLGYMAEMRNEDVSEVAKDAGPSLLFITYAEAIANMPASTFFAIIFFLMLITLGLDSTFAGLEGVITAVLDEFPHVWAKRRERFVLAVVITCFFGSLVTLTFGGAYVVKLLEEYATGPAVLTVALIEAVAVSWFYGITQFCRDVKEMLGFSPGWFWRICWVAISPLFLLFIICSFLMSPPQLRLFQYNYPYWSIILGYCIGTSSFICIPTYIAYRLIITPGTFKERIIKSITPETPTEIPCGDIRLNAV

[2] = target: T1, Sodium-dependent serotonin transporter; assay: Ratio of Ki value towards Serotonin transporter (SERT) to that of Dopamine transporter (DAT)
Target sequence in this assay (P31645 whole entry, looked up): as the sequence (P31645 whole entry) above

[3] = target: T2, Sodium-dependent dopamine transporter (Homo sapiens, UniProt Q01959); assay: Binding affinity towards dopamine transporter (DAT) by using [125I]RTI-55 radioligand
[4] = target: T2, Sodium-dependent dopamine transporter; assay: Compound was tested for the inhibition of dopamine (DA) reuptake; format: functional
[5] = target: Sodium-dependent noradrenaline transporter (Homo sapiens, UniProt P23975); assay: Compound was tested for the inhibition of norepinephrine (NE) reuptake; format: functional
[6] = target: T1, Sodium-dependent serotonin transporter; assay: Compound was tested for the inhibition of serotonin (5-HT) reuptake; format: functional
Target sequence in this assay (P31645 whole entry): as above

T2 sequence (Q01959 whole entry): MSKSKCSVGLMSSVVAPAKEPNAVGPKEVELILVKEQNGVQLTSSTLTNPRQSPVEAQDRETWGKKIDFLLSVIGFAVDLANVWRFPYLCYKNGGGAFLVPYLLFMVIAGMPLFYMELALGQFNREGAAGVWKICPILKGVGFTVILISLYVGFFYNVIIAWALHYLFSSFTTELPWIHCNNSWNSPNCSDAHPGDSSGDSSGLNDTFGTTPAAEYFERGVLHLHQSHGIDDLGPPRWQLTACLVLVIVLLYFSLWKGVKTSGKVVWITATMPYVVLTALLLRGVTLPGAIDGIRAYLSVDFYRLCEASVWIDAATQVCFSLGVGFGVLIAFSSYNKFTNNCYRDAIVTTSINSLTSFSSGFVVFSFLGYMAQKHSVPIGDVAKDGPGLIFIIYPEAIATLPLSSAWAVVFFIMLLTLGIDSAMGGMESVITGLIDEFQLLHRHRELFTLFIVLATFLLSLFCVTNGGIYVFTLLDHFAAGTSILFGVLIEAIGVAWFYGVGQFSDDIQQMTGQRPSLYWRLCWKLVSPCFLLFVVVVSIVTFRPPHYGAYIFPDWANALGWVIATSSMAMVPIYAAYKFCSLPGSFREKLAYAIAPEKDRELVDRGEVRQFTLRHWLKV
Sequence of Sodium-dependent noradrenaline transporter (P23975 whole entry): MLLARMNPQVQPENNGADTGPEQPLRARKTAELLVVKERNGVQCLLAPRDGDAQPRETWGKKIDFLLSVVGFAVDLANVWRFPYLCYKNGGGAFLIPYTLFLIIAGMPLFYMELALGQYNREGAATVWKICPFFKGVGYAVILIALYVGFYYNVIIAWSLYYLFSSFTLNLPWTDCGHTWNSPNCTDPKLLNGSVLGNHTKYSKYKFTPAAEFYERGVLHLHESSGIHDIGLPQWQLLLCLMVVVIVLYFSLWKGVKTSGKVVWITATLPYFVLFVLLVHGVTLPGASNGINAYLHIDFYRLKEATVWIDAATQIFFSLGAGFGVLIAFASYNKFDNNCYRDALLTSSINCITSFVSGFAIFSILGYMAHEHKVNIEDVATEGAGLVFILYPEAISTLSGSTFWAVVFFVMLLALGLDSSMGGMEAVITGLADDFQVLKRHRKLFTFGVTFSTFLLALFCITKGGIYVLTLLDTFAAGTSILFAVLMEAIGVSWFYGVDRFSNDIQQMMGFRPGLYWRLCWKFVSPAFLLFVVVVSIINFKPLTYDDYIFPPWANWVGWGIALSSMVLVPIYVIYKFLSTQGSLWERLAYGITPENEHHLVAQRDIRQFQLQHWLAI

## Fc1ccc(C(OCCC2CCN(Cc3cc4ccccc4o3)CC2)c2ccc(F)cc2)cc1
[1]
  Ki: 85 nM
[2]
  Ratio: 84

## Fc1ccc(C(OCCC2CCN(CC#Cc3ccccc3)CC2)c2ccc(F)cc2)cc1
[1]
  Ki: 164 nM
[2]
  Ratio: 31

## Fc1ccc(C(OCCC2CCN(C/C=C/c3ccco3)CC2)c2ccc(F)cc2)cc1
[3]
  Ki: 0.99 nM
[1]
  Ki: 41 nM
[2]
  Ratio: 41

## Fc1ccc(C(OCCC2CCN(Cc3ccc4ccccc4c3)CC2)c2ccc(F)cc2)cc1
[4]
  IC50: 7.2 nM
[5]
  IC50: 93 nM
[6]
  IC50: 277 nM
[1]
  Ki: 229 nM
[2]
  Ratio: 323

## Fc1ccc(C(OCCC2CCN(C/C=C/c3cccs3)CC2)c2ccc(F)cc2)cc1
[3]
  Ki: 1.3 nM
[1]
  Ki: 45 nM
[2]
  Ratio: 35

## Fc1ccc(C(OCCC2CCN(Cc3cc4ccccc4s3)CC2)c2ccc(F)cc2)cc1
[4]
  IC50: 11.9 nM
[5]
  IC50: 260 nM
[6]
  IC50: 1040 nM
[1]
  Ki: 246 nM
[2]
  Ratio: 153

## Fc1ccc(C(OCCC2CCN(Cc3cccc4ccccc34)CC2)c2ccc(F)cc2)cc1
[3]
  Ki: 16 nM
[1]
  Ki: 370 nM
[2]
  Ratio: 23

## Fc1ccc(C(OCCC2CCN(Cc3cc4ccccc4[nH]3)CC2)c2ccc(F)cc2)cc1
[1]
  Ki: 88 nM
[2]
  Ratio: 121

## Fc1ccc(C(OCCC2CCN(C/C=C/c3ccccc3)CC2)c2ccc(F)cc2)cc1
[3]
  Ki: 0.45 nM
[1]
  Ki: 47 nM
[2]
  Ratio: 104

## Fc1ccc(C(OCCC2CCN(CCCc3ccccc3)CC2)c2ccc(F)cc2)cc1
[3]
  Ki: 1.1 nM
[1]
  Ki: 68 nM
[2]
  Ratio: 65
